What was measured:
[1] = test system: primary neonatal rat ventricular cardiomyocytes (NRVCs); assay: MTT assay in NRVCs; assay type: cell-based; conditions: 24 h
Protocol: The cells were exposed to the test compounds for 24 h and cytotoxicity was quantified with MTT and LDH assays as described previously (Talman et al. [2011]). For the determination of cell membrane integrity, 50 µl of medium from each well was transferred onto a new 96-well plate followed by addition of 50 µl of substrate solution containing 1.3 mM β-nicotinamide adenine dinucleotide, 660 µM iodonitrotetrazolium, 54 mM L(+)-lactic acid, 280 µM phenazine methosulphate and 0.2 M Tris–HCl (pH 8.0). After a 30-min incubation, the reaction was stopped by adding 50 µl of 1 M acetic acid to each well and absorbance was measured at 490 nm using Victor2 plate reader (PerkinElmer, Turku, Finland). Spontaneous LDH release was measured from untreated cells, maximal LDH release from cells lysed with 0.9% Triton X-100 and background absorbance was measured from wells without cells. After background extraction, cytotoxicity was calculated as follows: cytotoxicity (%) = [(sample − spontaneous LDH release)/(maximal LDH release − spontaneous LDH release)] × 100. For quantification of metabolic activity, 3-(4,5-dimethylthiazol-2-yl)-2,5-diphenyltetrazolium bromide (MTT) was added to the cells at a final concentration of 0.5 mg/ml followed by 2 h incubation in cell culture conditions. […] Absorbance was measured at 550 nm and absorbance at 650 nm was subtracted as background. […]

[2] = test system: cardiac function; set-up: method as in Kinnunen et al. [2018]; conditions: after myocardial infarction or angiotensin II-induced cardiac hypertrophy; ref Kinnunen et al. [2018]; cited from earlier work
[3] = test system: extracellular signal-regulated kinase 1/2 signalling; set-up: method as in Ferreira et al. [2017]; conditions: systemic administration in heart-targeted nanoparticles; ref Ferreira et al. [2017]; cited from earlier work
[4] = test system: GATA4–NKX2-5 transcriptional synergy; set-up: method as in Välimäki et al. [2017]; conditions: ref Välimäki et al. [2017]; cited from earlier work
[5] = test system: stretch-induced cardiomyocyte hypertrophy; set-up: method as in Välimäki et al. [2017]; conditions: ref Välimäki et al. [2017]; cited from earlier work

Compound	increase in metabolic activity in NRVCs [1]	cardiac function [2]	pro-hypertrophic ERK1/2 signalling in the hypoxic endocardial layer of the left ventricle [3]	GATA4-induced synergistic transactivation of a promoter sequence containing NKX2-5 binding sites [4]	stretch-induced cardiomyocyte hypertrophy [5]
CCN(CC)c1ccc(NC(=O)c2c(C)noc2-c2cc(C)on2)cc1 [3i-1047]	not observed				
CCN(CC)c1ccc(NC(=O)c2c(-c3ccccc3)noc2C)cc1 [3i-1000]		improves cardiac function	inhibits	inhibits	attenuates

— PMC6132687, “Stem cells are the most sensitive screening tool to identify toxicity of GATA4-targeted novel small-molecule compounds” (Archives of Toxicology, 2018)
